Results reported in patent US20220023316A1, “METHODS FOR THE TREATMENT OF DEPRESSION” (Praxis Precision Medicines, Inc., priority 2018, published 2022).

Experiments:
[1] = human, in vivo, 30 mg
Method: (§2) A Food Effect Cohort (Cohort 4) was conducted to assess the effect of food on the PK profile of a single dose of Compound 1 when administered to healthy subjects. The subjects of Cohort 4 were treated with 30 mg of Compound 1 QD.
(§3) Cohort 4 subjects received a single 30 mg dose of a Compound 1 suspension on Days 1 and 5. The Day 1 dose was administered after a minimum of 10 hour fasting. No additional fluid intake was allowed until 1 hour after drug administration. A standard meal was given at least 4 hours post-dose. The Day 5 dose was administered following a high-fat, high calorie meal. Participants remained at the clinical site for a total of 8 days to complete PK sampling after the second dose.
(§4) Plasma samples were analyzed to determine Compound 1 concentrations using a validated assay method. Pharmacokinetic variables (including but not limited to Cmax, Tmax and AUC(0-last)), were calculated using non-compartmental analysis. PK parameters for Compound 1 were derived from the plasma concentration data using non-compartmental analysis with Phoenix™ WinNonlin® v 8.0 (Pharsight Corporation, USA).
(§5) Urine (Cohort 4): No urine analysis was conducted in Cohort 4.

[2] = Safety and tolerability in healthy subjects (Cohorts 1-3); format: in vivo, human
Method: Blood and urine were obtained during each treatment period at designated times for PK and other analyses (see below). Standard safety assessments were measured during each treatment period.

[3] = Multiple escalating dose PK study of oral suspension in healthy subjects (Cohorts 1-3); conditions: for t1/2: Day 14 steady state
Method: (§6) Healthy subjects aged 18 to 55 years were treated with an oral suspension of Compound 1 to study the safety, tolerability, pharmacokinetics and pharmacodynamics of Compound 1 in healthy subjects.
(§7) The study was a randomized, double-blind, placebo-controlled multiple escalating dose study comprised of 3 cohorts that each received an oral suspension. Each cohort consisted of two groups: one group treated with Compound 1 and another treated with placebo. In each cohort, the ratio of Compound 1-treated subjects to placebo-treated subjects was 3:1.
(§8) The Compound 1-treated subjects of Cohort 1 were treated with 15.0 mg of Compound 1 once per day (QD). The Compound 1-treated subjects of Cohort 2 were treated with 30.0 mg of Compound 1 QD. The Compound 1-treated subjects of Cohort 3 were treated with 60.0 mg of Compound 1 QD.
(§9) Patients in each cohort were treated with Compound 1 for 14 consecutive days, unless dosing was halted by the Safety Review Committee (SRC). The dosing of subjects in each of the cohorts was staggered with the decision to dose escalate based on SRC review of a minimum of 14 days of observation of safety and tolerability data and review of the available plasma PK data from the preceding cohort(s).
(§10) Compound 1 was administered under fasted conditions (no food or drink, except water, for at least 10 hours prior to dosing). Immediately after administration of Compound 1, the subject was be administered 240 mL water. No additional fluid intake was allowed until 1 hour after Compound 1 administration.
(§11) Cohort 1 subjects received a single 15.0 mg dose of a Compound 1 suspension on the morning of Days 1-14. Cohort 2 subjects received a single 30.0 mg dose of a Compound 1 suspension on the morning of Days 1-14. Cohort 3 subjects received a single 60.0 mg dose of a Compound 1 suspension on the morning of Days 1-14. For all cohorts, the last treatment was administered on the morning of Day 14.
(§12) PK parameters (e.g., Cmax, Tmax, T1/2, AUC, etc.) for healthy patients in each cohort was compared to assess the suitability of Compound 1 suspension for the treatment of MDD. Data were obtained from the blood plasma samples collected from each cohort according to the schedule provided.
as §4
(§13) Blood (Cohorts 1-3): For each cohort, blood samples were collected on Days 1, 2, 3, 4, 5, 6 and 14 at the following time points: Day 1 at pre-dose (0 hour), 0.25, 0.5, 0.75, 1, 1.5, 2, 2.5, 3, 4, 6, 8, 12, 16 h post-dose; Day 2 at pre-dose (24 h), Day 3 at pre-dose (48 h), Day 4 at pre-dose (72 h), Day 5 at pre-dose (96 h), Day 6 at pre-dose (120 h); Day 14 at pre-dose 0.25, 0.5, 0.75, 1, 1.5, 2, 2.5, 3, 4, 6, 8, 12, 16, 24, 36, 48, and 72 hours. Trough level blood samples were collected on Days 2, 3, 4, 5, 6 and 14, prior to the morning dose administrations.
(§14) Descriptive statistics were calculated for plasma and urine PK parameter and concentration data, and summarized by study day and time point. Arithmetic means, coefficient of variation (CV), standard deviation, median, minimum, and maximum values, and number of observations were calculated for all PK parameters and trough concentration data. Except for Tmax, the geometric mean, geometric standard deviation, and geometric CV were provided for all PK parameter and concentration data.

[4] = Safety and tolerability in MDD patients, Part A; format: in vivo, human; conditions: 80 mg Cohort
Method: (§1) In Part A, participants were administered daily doses of Compound 1 (45 mg Cohort and 80 mg Cohort) at 4 PM on Day 1 and qHS on all other study days for 7 days inpatient followed by 7 days outpatient (with subsequent Cohorts receiving up to 120 mg qHS). Participants checked into the clinic on Day 1. During this period the following assessments were performed: adverse event assessments, vital signs, physical examinations, blood and urine samples for safety assessments, ECGs, C-SSRS assessments, blood samples for PK, and efficacy assessments (HAM-D, MADRS, HAM-A, CGI [CGI-S and CGI-I], PSQI, and SDQ). Baseline assessments occurred on Day 1 prior to administration of study drug. On Day 8, prior to discharge, participants were supplied with sufficient Compound 1 to complete 7 days of dosing.
Adverse events (AEs) will be monitored throughout the duration of the study.

[5] = Food Effect Cohort (Cohort 4) PK, single 30 mg dose fasted vs fed; conditions: healthy subjects
Method: as §2, §3, §4, §5

[6] = human, in vivo
Method: as §6, §7, §8, §9, §10, §11, §12, §4, §13, §14

[7] = test system: severe major depressive disorder (MDD); assay: Open-label study in patients with severe MDD, Part A efficacy (HAM-D); format: in vivo, human
Method: The study is an open-label, study comprised of two dosing periods, Part A and Part B, during which patients were treated with an oral suspension of Compound 1. Part A was an open-label assessment of two dose levels of Compound 1 (45 mg qHS Cohort 1 and 80 mg qHS Cohort, i.e., once daily administration at bedtime) administered for 7 days inpatient followed by 7 days outpatient. PRAX-114 was administered at 4 PM on Day 1 in order to collect post-dosing PK samples that could not be collected with qHS dosing.
as §1
Patients were administered daily doses of Compound 1 for 7 days inpatient followed by 7 days outpatient.
In the 45 mg Cohort, patients were administered once daily dose of 45 mg of Compound 1 at bedtime for 7 days inpatient followed by once daily dose of 45 mg of Compound 1 at bedtime for 7 days outpatient.
In the 80 mg Cohort, patients were administered once daily dose of 80 mg of Compound 1 at bedtime for 7 days inpatient followed by once daily dose of 80 mg of Compound 1 at bedtime for 7 days outpatient.
Part A: In Part A, HAM-D, MADRS, HAM-A, CGI-S, and CGI-I values were collected in the morning of Days 1, 2, 3, 4, 5, 6, 7, 8, 15, 21 and 28. PSQI and SDQ values will be collected on Days 1, 8, 15, 21 and 28. Part B: In Part B, HAM-D, MADRS, HAM-A, CGI-S, CGI-I, PSQI and SDQ values will be collected on the days described for Part A.
HAM-D Response was defined as a reduction from baseline of >50% in total HAM-D score. HAM-D remission was defined as a total HAM-D score of <7.
Efficacy analysis: For both parts of the clinical trial, the HAM-D total score and change from baseline values will be summarized by treatment group and time point. In addition, the change from baseline in HAM-D total score will also be analyzed using paired t-tests or similar methods. The null hypothesis of this test is that the mean difference in HAM-D total score between paired observations (i.e., pre- and post-treatment) is zero. Similar analysis methods will be used for all secondary and exploratory efficacy variables.

[8] = Cohorts 1-3, 15-60 mg QD for 14 days

## COC[C@@]1(O)CC[C@@]2(C)[C@@H](CC[C@@H]3[C@@H]2CC[C@]2(C)[C@@H](C(=O)Cn4ccnc4)CC[C@@H]32)C1 [Compound 1, 3α-Hydroxy-3β-methoxymethyl-21-(1′-imidazolyl)-5α-pregnan-20-one]
[1]
  Cmax higher under fasting conditions compared to fed: 1.5-1.6 times
  Tmax under fasting compared to fed conditions: tendency for a shorter Tmax
[1]; po
  AUCinf: 602.3 (304.84) h · ng/mL
[2]; [8]
  Serious Adverse Events: no Serious Adverse Events
  clinically relevant vital sign, ECG, or lab abnormalities: no clinically relevant vital sign, ECG, or lab abnormalities
[2]; doses of 30 mg and 60 mg QD
  elevated mood: several subjects experienced elevated mood
[3]; Cohort 1, 15.0 mg QD oral suspension, Geo Mean
  t1/2: 14.613 h
[3]; Cohort 1, 15.0 mg QD oral suspension, Mean
  t1/2: 14.77 ± 2.26 h
[3]; Cohort 1, 15.0 mg QD oral suspension, Median
  t1/2: 15.26 h
[3]; Cohort 2, 30.0 mg QD oral suspension, Geo Mean
  t1/2: 12.647 h
[3]; Cohort 2, 30.0 mg QD oral suspension, Mean
  t1/2: 12.70 ± 1.23 h
[3]; Cohort 2, 30.0 mg QD oral suspension, Median
  t1/2: 12.90 h
[3]; Cohort 2, 30.0 mg QD oral suspension, fasted, Day 1, Geometric Mean
  Cmax: 120.018 ng/mL
[3]; Cohort 3, 60.0 mg QD
  accumulation factor of the dosing interval (ratio of AUCDay14/AUCDay1): 0.89
[3]; Cohort 3, 60.0 mg QD oral suspension, Geo Mean
  t1/2: 12.164 h
[3]; Cohort 3, 60.0 mg QD oral suspension, Mean
  t1/2: 12.23 ± 1.32 h
[3]; Cohort 3, 60.0 mg QD oral suspension, Median
  t1/2: 12.42 h
[4]
  Adverse Event profile compared to the 45 mg Cohort: no change in Adverse Event profile
  tolerability of the dose: well tolerated
[5]; Fed (Day 1) n =10 as head prints, single 30 mg oral suspension after high-fat, high calorie meal, Mean (SD)
  t1/2: 11.26 (0.8641) h
[5]; single 30 mg dose
  t1/2 fasted versus fed: similar
[6]
  increase in Cavg, AUCss and AUCinf with dose: proportional increase
  increase in Cmax and AUC parameters at steady state with dose: approximate proportional increase
[7]; 45 mg Cohort (45 mg qHS), Day 7, 13 patients
  patients meeting HAM-D Response or Remission criterion: 11 of the 13
[7]; 45 mg Cohort (45 mg qHS), Day 15, 13 patients
  patients meeting HAM-D Response or Remission criteria: 8 of the 13
[7]; 80 mg Cohort (80 mg qHS), Day 7
  least squares Mean Change from Baseline in HAM-D score: −20.0
[7]; 80 mg Cohort (80 mg qHS), Day 15
  least squares Mean Change from Baseline in HAM-D score: −16.0
[7]; 80 mg Cohort (80 mg qHS), Day 15, 7 patients
  patients meeting HAM-D Response or Remission criteria: 6 of the 7
[7]; as monotherapy and in combination with another antidepressant
  Efficacy (reduction Mean Change from Baseline in HAM-D score): observed
[7]; daily dose of 45 mg or 80 mg, oral suspension, MDD patients
  symptoms of MDD: reduced symptoms of moderate to severe MDD
[7]; patients undergoing first course of antidepressant treatment and patients that failed previous courses
  Efficacy (reduction Mean Change from Baseline in HAM-D score): observed
